Assay results as given in ChEMBL document CHEMBL4706519, “Evaluation of N-phenyl-2-aminothiazoles for treatment of multi-drug resistant and intracellular Staphylococcus aureus infections” (Eur J Med Chem, 2020).
Values after ≈ are worked out from the molar mass of the structure shown.

Columns and labels:
Staphylococcus aureus [1] = assay: microbe, parasite or virus in culture; settings: USA700 NRS386
Staphylococcus aureus [2] = assay: microbe, parasite or virus in culture; settings: ATCC 6538
Staphylococcus aureus [3] = assay: Antibacterial activity against methicillin-resistant Staphylococcus aureus USA400 NRS123 infected in mouse J774 cells assessed as reduction in intracellular bacterial burden at 2 x MIC measured after 24 hrs relative to control; type: functional
Staphylococcus aureus [4] = assay: Bactericidal activity against methicillin-resistant Staphylococcus aureus USA400 NRS123 assessed as log reduction in viable bacteria count at 5 times MIC incubated for 2 hrs in soy broth followed by incubation for 18 to 20 hrs on agar plate by time kill assay; type: functional; settings: time 20-22 hrs
Streptococcus pneumoniae [5] = assay: Ratio of MBC to MIC for methicillin-resistant Streptococcus pneumoniae ATCC 700677 assessed as inhibition of bacterial growth measured after 18 to 20 hrs by CLSI protocol based broth microdilution method; type: functional; settings: time 18-20 hrs
Staphylococcus aureus [6] = assay: Antibacterial activity against vancomycin-resistant Staphylococcus aureus 10 assessed as inhibition of bacterial growth measured after 18 to 20 hrs by CLSI protocol based broth microdilution method; type: functional; settings: time 18-20 hrs
Staphylococcus aureus [7] = assay: Antibacterial activity against vancomycin-resistant Staphylococcus aureus 12 assessed as inhibition of bacterial growth measured after 18 to 20 hrs by CLSI protocol based broth microdilution method; type: functional; settings: time 18-20 hrs
[8] = system: Staphylococcus epidermidis; assay: Ratio of MBC to MIC for methicillin-resistant Staphylococcus epidermidis NRS101 assessed as inhibition of bacterial growth measured after 18 to 20 hrs by CLSI protocol based broth microdilution method; type: functional; settings: time 18-20 hrs
Enterococcus faecium [9] = assay: Antibacterial activity against vancomycin-resistant Enterococcus faecium ATCC 700221 assessed as inhibition of bacterial growth measured after 18 to 20 hrs by CLSI protocol based broth microdilution method; type: functional; settings: time 18-20 hrs
Streptococcus pneumoniae [10] = assay: Antibacterial activity against cephalosporin-resistant Streptococcus pneumoniae ATCC 51916 assessed as inhibition of bacterial growth measured after 18 to 20 hrs by CLSI protocol based broth microdilution method; type: functional; settings: time 18-20 hrs
[11] = Intrinsic clearance in human liver microsomes at 0.1 uM in absence of NADPH measured upto 60 mins by LC/MS/MS analysis; type: ADME, Microsome; settings: read-out: CLH
Staphylococcus aureus [12] = assay: microbe, parasite or virus in culture; settings: USA500 NRS385
Listeria monocytogenes [13] = assay: Antibacterial activity against Listeria monocytogenes ATCC 19111 assessed as inhibition of bacterial growth measured after 18 to 20 hrs by CLSI protocol based broth microdilution method; type: functional; settings: time 18-20 hrs
Escherichia coli [14] = assay: Antibacterial activity against Escherichia coli JW55031 harboring toIC efflux mutant assessed as inhibition of bacterial growth measured after 18 to 20 hrs by broth microdilution method; type: functional; settings: time 18-20 hrs
Staphylococcus aureus [15] = assay: Ratio of MIC for methicillin-resistant Staphylococcus aureus USA400 NRS123 measured after 13th passage to MIC for methicillin-resistant Staphylococcus aureus USA400 NRS123 measured after 18 to 20 hrs by broth microdilution assay; type: functional
[16] = Half life in human liver microsomes at 0.1 uM in absence of NADPH by LC/MS/MS analysis; type: ADME, Microsome
Staphylococcus aureus [17] = assay: Ratio of MBC to MIC against methicillin-sensitive Staphylococcus aureus ATCC 6538 assessed as inhibition of bacterial growth measured after 18 to 20 hrs by CLSI broth microdilution method; type: functional; settings: time 18-20 hrs
physchem = settings: phosphate-buffered saline, pH 7.4
[18] = Selectivity index, ratio of maximum non-toxic concentration for human Caco-2 cells to MIC for methicillin-resistant Staphylococcus aureus USA400 NRS123; type: toxicity
Enterococcus faecium [19] = assay: Ratio of MBC to MIC for vancomycin-resistant Enterococcus faecium ATCC 700221 assessed as inhibition of bacterial growth measured after 18 to 20 hrs by CLSI protocol based broth microdilution method; type: functional; settings: time 18-20 hrs
in vitro = settings: human, liver microsomes
Staphylococcus aureus [20] = assay: Bactericidal activity against methicillin-resistant Staphylococcus aureus USA400 NRS123 assessed as post-antibiotic effect at 5 times MIC incubated for 2 hrs followed by compound wash-out by viable plate count method; type: functional
Staphylococcus aureus [21] = assay: Antibacterial activity against methicillin-resistant Staphylococcus aureus USA400 NRS123 infected in mouse J774 cells assessed as reduction in intracellular bacterial burden at 4 x MIC measured after 24 hrs relative to control; type: functional
Enterococcus faecalis [22] = assay: Ratio of MBC to MIC for vancomycin-resistant Enterococcus faecalis ATCC 51299 assessed as inhibition of bacterial growth measured after 18 to 20 hrs by CLSI protocol based broth microdilution method; type: functional; settings: time 18-20 hrs
Staphylococcus aureus [23] = assay: microbe, parasite or virus in culture; settings: USA400 NRS123
[24] = Selectivity index, ratio of maximum non-toxic concentration for human Caco-2 cells to MIC for methicillin-resistant Staphylococcus aureus USA500 NRS385; type: toxicity
Escherichia coli [25] = assay: Antibacterial activity against wild type Escherichia coli BW25113 assessed as inhibition of bacterial growth measured after 18 to 20 hrs by broth microdilution method; type: functional; settings: time 18-20 hrs
Listeria monocytogenes [26] = assay: Ratio of MBC to MIC for Listeria monocytogenes ATCC 19111 assessed as inhibition of bacterial growth measured after 18 to 20 hrs by CLSI protocol based broth microdilution method; type: functional; settings: time 18-20 hrs
[27] = Selectivity index, ratio of maximum non-toxic concentration for human Caco-2 cells to MIC for methicillin-resistant Staphylococcus aureus USA700 NRS386; type: toxicity
Enterococcus faecalis [28] = assay: microbe, parasite or virus in culture; settings: ATCC 51299
Staphylococcus aureus [29] = assay: Antibacterial activity against methicillin-resistant Staphylococcus aureus USA400 NRS123 infected in mouse J774 cells assessed as log reduction in intracellular bacterial burden at 4 x MIC measured after 24 hrs; type: functional
[30] = Cytotoxicity against human Caco-2 cells assessed as cell viability at 64 ug/ml incubated for 2 hrs by MTS assay relative to control; type: cell-based; settings: at 64 µg/mL, read-out: Activity
Staphylococcus aureus [31] = assay: Antibacterial activity against methicillin-resistant Staphylococcus aureus USA300 NRS384 assessed as inhibition of bacterial growth measured after 18 to 20 hrs by broth microdilution method; type: functional; settings: time 18-20 hrs
Staphylococcus aureus [32] = assay: Bactericidal activity against methicillin-resistant Staphylococcus aureus USA400 NRS123 assessed as eradication of bacterial count at 5 times MIC incubated for 8 hrs in soy broth followed by incubation for 18 to 20 hrs on agar plate by time kill assay; type: functional; settings: time 26-28 hrs
[33] = Selectivity index, ratio of maximum non-toxic concentration for human Caco-2 cells to MIC for methicillin-resistant Staphylococcus aureus NRS119; type: toxicity

In the case of C/C(=N\NC(=N)N)c1ccc(Nc2nc(-c3ccc(C)cc3)cs2)cc1, the MBC (Staphylococcus aureus [1]) is reported as 2 µg/mL (≈ 5.49 µM), the MIC (Staphylococcus aureus [1]) is reported as 2 µg/mL (≈ 5.49 µM) and the MBC (Staphylococcus aureus [2]) is reported as 4 µg/mL (≈ 11 µM). For the same compound, the MIC (Staphylococcus aureus [2]) was 2 µg/mL (≈ 5.49 µM), the “inhibition (INH)” value (Staphylococcus aureus [3]) was 93% and the Activity (Staphylococcus aureus [4]) was 3 log10CFU/ml. For the same compound, the Ratio (Streptococcus pneumoniae [5]) was 1, the MBC (Staphylococcus aureus [6]) was 2 µg/mL (≈ 5.49 µM) and the MIC (Staphylococcus aureus [6]) was 2 µg/mL (≈ 5.49 µM). The MBC (Staphylococcus aureus [7]) was 2 µg/mL (≈ 5.49 µM), the MIC (Staphylococcus aureus [7]) was 2 µg/mL (≈ 5.49 µM) and the Ratio [8] was 1. It also gave an MBC (Enterococcus faecium [9]) of 4 µg/mL (≈ 11 µM), an MIC (Enterococcus faecium [9]) of 2 µg/mL (≈ 5.49 µM) and an MBC (Streptococcus pneumoniae [10]) of 4 µg/mL (≈ 11 µM). For the same compound, the MIC (Streptococcus pneumoniae [10]) was 2 µg/mL (≈ 5.49 µM), the microsomal CLint at 0.1 µM [11] was 27.3 µL/min/mg and the MBC (Staphylococcus aureus [12]) was 2 µg/mL (≈ 5.49 µM). For the same compound, the MIC (Staphylococcus aureus [12]) was 2 µg/mL (≈ 5.49 µM), the MBC (Listeria monocytogenes [13]) was 2 µg/mL (≈ 5.49 µM) and the MIC (Listeria monocytogenes [13]) was 1 µg/mL (≈ 2.74 µM). The MIC (Escherichia coli [14]) was 4 µg/mL (≈ 11 µM), the Ratio (Staphylococcus aureus [15]) was 1 and the half-life at 0.1 µM [16] was 4.23 h. The Ratio (Staphylococcus aureus [17]) was 1, the solubility kinetic at 2 h (physchem) was 26.7 µM (≈ 9.73 µg/mL) and the selectivity ratio [18] was 16. The Ratio (Enterococcus faecium [19]) was 1, the microsomal CLint at 1 h, 0.1 µM (in vitro) was 58.9 µL/min/mg and the PAE (Staphylococcus aureus [20]) was 6 h. For the same compound, the “inhibition (INH)” value (Staphylococcus aureus [21]) was 99%, the Ratio (Enterococcus faecalis [22]) was 1 and the MBC (Staphylococcus aureus [23]) was 2 µg/mL (≈ 5.49 µM). The MIC (Staphylococcus aureus [23]) was 2 µg/mL (≈ 5.49 µM), the selectivity ratio [24] was 16 and the MIC (Escherichia coli [25]) was 16 µg/mL (≈ 43.9 µM). The Ratio (Listeria monocytogenes [26]) was 1, the selectivity ratio [27] was 16 and the MBC (Enterococcus faecalis [28]) was 4 µg/mL (≈ 11 µM). For the same compound, the MIC (Enterococcus faecalis [28]) was 2 µg/mL (≈ 5.49 µM), the Activity (Staphylococcus aureus [29]) was 2.49 log10CFU/ml and the viability at 2 h, 64 ug/ml [30] was 100%. The MIC (Staphylococcus aureus [31]) was 2 µg/mL (≈ 5.49 µM), the Activity (Staphylococcus aureus [32]) was 100% and the selectivity ratio [33] was 16.
